Reference: ChEMBL document CHEMBL5696441 (Nat Chem Biol, 2011)

Experiments:
[1] = target: Mitogen-activated protein kinase kinase kinase kinase 5 (Homo sapiens) (UniProt Q9Y4K4); experiment: Inhibition of human MAP4K5 assessed as residual activity at 1 uM using casein as substrate in presence of 33P-ATP by ProQinase assay relative to control
[2] = target: Receptor-type tyrosine-protein kinase FLT3 (Homo sapiens) (UniProt P36888); experiment: Inhibition of FLT3 (unknown origin) assessed as remaining activity at 1 uM by Kinome scan method relative to control
Receptor-type tyrosine-protein kinase FLT3 (Homo sapiens), sequence (P36888 whole entry): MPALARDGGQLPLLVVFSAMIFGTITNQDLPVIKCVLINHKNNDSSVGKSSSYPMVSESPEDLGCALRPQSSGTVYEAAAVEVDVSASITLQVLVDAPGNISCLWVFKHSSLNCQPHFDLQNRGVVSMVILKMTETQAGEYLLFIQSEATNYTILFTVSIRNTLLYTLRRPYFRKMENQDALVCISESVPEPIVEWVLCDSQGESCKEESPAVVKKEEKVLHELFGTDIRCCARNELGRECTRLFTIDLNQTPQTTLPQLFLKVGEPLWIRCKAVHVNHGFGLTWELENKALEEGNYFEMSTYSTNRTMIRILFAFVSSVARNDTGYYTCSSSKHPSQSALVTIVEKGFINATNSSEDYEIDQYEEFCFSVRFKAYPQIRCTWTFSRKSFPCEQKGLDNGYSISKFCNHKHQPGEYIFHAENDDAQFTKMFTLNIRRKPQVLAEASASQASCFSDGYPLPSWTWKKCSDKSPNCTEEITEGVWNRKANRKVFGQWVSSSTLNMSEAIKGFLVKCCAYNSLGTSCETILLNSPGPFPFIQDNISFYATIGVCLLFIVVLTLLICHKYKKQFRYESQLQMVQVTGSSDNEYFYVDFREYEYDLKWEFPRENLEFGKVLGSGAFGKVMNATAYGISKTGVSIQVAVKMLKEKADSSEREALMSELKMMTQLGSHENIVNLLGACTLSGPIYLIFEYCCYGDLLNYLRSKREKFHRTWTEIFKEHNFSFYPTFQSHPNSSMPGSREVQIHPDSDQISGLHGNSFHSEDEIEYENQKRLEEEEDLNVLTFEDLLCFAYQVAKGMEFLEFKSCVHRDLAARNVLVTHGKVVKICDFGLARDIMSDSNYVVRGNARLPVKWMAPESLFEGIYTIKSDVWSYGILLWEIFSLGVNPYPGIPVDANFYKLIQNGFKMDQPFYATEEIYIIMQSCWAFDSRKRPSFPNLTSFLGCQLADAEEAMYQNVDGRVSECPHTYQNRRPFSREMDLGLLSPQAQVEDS

[3] = target: Mitogen-activated protein kinase kinase kinase 3 (Homo sapiens) (UniProt Q99759); experiment: Inhibition of MAP3K3 (unknown origin) assessed as remaining activity at 1 uM by Kinome scan method relative to control
[4] = target: Cyclin-Y/Cyclin-dependent kinase 16 (Homo sapiens) (UniProt Q00536+Q8ND76); experiment: Inhibition of human PCTAIRE1/CyclinY assessed as residual activity at 1 uM using RBER-GSK3 as substrate in presence of 33P-ATP by ProQinase assay relative to control; type: protein-complex assay
[5] = target: Serine/threonine-protein kinase 16 (Homo sapiens) (UniProt O75716); experiment: Inhibition of STK16 (unknown origin) assessed as remaining activity at 1 uM by Kinome scan method relative to control
Serine/threonine-protein kinase 16 (Homo sapiens), sequence (O75716 whole entry): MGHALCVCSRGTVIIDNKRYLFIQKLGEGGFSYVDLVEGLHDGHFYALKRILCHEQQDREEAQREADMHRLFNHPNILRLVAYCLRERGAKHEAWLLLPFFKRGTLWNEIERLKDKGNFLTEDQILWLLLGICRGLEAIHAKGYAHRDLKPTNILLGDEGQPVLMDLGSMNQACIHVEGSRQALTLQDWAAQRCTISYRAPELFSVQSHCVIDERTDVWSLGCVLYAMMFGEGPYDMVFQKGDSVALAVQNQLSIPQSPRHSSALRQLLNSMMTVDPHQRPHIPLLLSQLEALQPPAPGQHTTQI

[6] = target: Protein kinase C iota type (Homo sapiens) (UniProt P41743); experiment: Inhibition of human PKCiota assessed as residual activity at 1 uM using 3xChocktide-PKC(19-31) as substrate in presence of 33P-ATP by ProQinase assay relative to control
[7] = target: Receptor-type tyrosine-protein kinase FLT3 (Homo sapiens) (UniProt P36888); experiment: Inhibition of human FLT3 assessed as residual activity at 1 uM using Poly(Ala,Glu,Lys,Tyr)6:2:5:1 as substrate in presence of 33P-ATP by ProQinase assay relative to control
[8] = target: Hepatocyte growth factor receptor (Homo sapiens) (UniProt P08581); experiment: Inhibition of MET (unknown origin) assessed as remaining activity at 1 uM by Kinome scan method relative to control
[9] = target: Protein kinase C epsilon type (Homo sapiens) (UniProt Q02156); experiment: Inhibition of PRKCE (unknown origin) assessed as remaining activity at 1 uM by Kinome scan method relative to control
[10] = target: Mitogen-activated protein kinase kinase kinase 5 (Homo sapiens) (UniProt Q99683); experiment: Inhibition of human ASK1 assessed as residual activity at 1 uM using RBER-GSK3(14-27) as substrate in presence of 33P-ATP by ProQinase assay relative to control
[11] = target: Interleukin-1 receptor-associated kinase 4 (Homo sapiens) (UniProt Q9NWZ3); experiment: Inhibition of human IRAK4 assessed as residual activity at 1 uM using RB-CTF as substrate in presence of 33P-ATP by ProQinase assay relative to control
Interleukin-1 receptor-associated kinase 4 (Homo sapiens), sequence (Q9NWZ3 whole entry): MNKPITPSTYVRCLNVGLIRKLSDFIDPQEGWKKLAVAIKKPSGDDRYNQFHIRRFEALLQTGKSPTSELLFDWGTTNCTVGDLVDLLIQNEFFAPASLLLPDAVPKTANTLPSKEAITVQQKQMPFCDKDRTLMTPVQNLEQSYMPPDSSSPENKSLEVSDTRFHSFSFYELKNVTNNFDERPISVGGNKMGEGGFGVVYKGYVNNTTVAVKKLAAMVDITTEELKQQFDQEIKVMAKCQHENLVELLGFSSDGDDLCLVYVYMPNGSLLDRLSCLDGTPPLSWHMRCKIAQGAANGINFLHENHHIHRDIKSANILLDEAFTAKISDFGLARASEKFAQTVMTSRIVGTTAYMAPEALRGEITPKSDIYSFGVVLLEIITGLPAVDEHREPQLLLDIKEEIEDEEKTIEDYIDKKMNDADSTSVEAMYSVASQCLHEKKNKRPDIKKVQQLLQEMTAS

TAK1/TAB1 (Homo sapiens) = TAK1/TAB1 (Homo sapiens) (UniProt Q15750+O43318); experiment: Inhibition of human MAP3K7/MAP3K7IP1 assessed as residual activity at 1 uM using RB-S6P as substrate in presence of 33P-ATP by ProQinase assay relative to control; type: protein-complex assay
[12] = system: Epidermal growth factor receptor (Homo sapiens), P00533 [L858R,T790M]; experiment: Inhibition of EGFR L858R/T790M mutant (unknown origin) assessed as remaining activity at 1 uM by Kinome scan method relative to control
[13] = target: Cytoplasmic tyrosine-protein kinase BMX (Homo sapiens) (UniProt P51813); experiment: Inhibition of BMX (unknown origin) assessed as remaining activity at 1 uM by Kinome scan method relative to control
[14] = target: Ephrin type-B receptor 2 (Homo sapiens) (UniProt P29323); experiment: Inhibition of human EPHB2 assessed as residual activity at 1 uM using poly(Ala,Glu,Lys,Tyr)6:2:5:1 as substrate in presence of 33P-ATP by ProQinase assay relative to control
Ephrin type-B receptor 2 (Homo sapiens), sequence (P29323 whole entry): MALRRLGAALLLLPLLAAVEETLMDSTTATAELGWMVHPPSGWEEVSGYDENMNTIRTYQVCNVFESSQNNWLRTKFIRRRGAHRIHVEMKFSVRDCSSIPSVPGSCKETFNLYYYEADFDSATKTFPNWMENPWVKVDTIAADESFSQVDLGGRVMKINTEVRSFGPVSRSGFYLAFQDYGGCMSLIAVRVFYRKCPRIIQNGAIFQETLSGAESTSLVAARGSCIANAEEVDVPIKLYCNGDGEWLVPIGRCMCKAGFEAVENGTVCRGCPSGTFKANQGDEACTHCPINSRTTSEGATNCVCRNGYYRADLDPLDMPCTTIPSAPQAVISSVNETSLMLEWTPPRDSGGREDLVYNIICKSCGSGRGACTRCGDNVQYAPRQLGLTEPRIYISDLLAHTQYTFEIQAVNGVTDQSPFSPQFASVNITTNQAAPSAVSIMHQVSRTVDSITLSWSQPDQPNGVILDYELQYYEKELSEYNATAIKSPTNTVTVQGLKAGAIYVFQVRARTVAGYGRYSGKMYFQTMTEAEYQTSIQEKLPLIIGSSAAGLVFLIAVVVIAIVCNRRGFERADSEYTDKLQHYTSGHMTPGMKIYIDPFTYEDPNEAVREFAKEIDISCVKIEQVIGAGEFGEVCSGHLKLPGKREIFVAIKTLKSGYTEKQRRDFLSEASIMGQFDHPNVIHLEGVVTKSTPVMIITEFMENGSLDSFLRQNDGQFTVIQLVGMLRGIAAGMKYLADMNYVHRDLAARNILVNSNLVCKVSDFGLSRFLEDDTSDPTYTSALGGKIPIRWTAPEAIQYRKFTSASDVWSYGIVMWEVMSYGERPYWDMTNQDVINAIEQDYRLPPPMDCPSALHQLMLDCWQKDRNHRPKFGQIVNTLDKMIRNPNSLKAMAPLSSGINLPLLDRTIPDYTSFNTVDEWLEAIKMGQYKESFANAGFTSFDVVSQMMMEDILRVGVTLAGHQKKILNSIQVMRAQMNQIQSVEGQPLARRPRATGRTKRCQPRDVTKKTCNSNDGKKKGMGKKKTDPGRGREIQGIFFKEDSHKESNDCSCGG

[15] = target: Mitogen-activated protein kinase 11 (Homo sapiens) (UniProt Q15759); experiment: Inhibition of human P38beta assessed as residual activity at 1 uM using ATF2 as substrate in presence of 33P-ATP by ProQinase assay relative to control
Mitogen-activated protein kinase 11 (Homo sapiens), sequence (Q15759 whole entry): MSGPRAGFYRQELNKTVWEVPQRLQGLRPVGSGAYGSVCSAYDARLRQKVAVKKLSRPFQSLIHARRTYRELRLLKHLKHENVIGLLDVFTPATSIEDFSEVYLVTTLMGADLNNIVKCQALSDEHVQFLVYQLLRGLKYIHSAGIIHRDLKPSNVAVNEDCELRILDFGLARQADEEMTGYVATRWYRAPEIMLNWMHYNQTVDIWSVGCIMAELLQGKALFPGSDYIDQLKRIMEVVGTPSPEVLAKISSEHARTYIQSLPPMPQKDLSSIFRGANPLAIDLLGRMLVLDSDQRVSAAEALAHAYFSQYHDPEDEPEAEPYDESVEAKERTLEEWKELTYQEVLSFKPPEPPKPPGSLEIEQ

[16] = target: Inhibitor of nuclear factor kappa-B kinase subunit epsilon (Homo sapiens) (UniProt Q14164); experiment: Inhibition of IKK-epsilon (unknown origin) assessed as remaining activity at 1 uM by Kinome scan method relative to control
[17] = target: cAMP-dependent protein kinase catalytic subunit PRKX (Homo sapiens) (UniProt P51817); experiment: Inhibition of PRKX (unknown origin) assessed as remaining activity at 1 uM by Kinome scan method relative to control
cAMP-dependent protein kinase catalytic subunit PRKX (Homo sapiens), sequence (P51817 whole entry): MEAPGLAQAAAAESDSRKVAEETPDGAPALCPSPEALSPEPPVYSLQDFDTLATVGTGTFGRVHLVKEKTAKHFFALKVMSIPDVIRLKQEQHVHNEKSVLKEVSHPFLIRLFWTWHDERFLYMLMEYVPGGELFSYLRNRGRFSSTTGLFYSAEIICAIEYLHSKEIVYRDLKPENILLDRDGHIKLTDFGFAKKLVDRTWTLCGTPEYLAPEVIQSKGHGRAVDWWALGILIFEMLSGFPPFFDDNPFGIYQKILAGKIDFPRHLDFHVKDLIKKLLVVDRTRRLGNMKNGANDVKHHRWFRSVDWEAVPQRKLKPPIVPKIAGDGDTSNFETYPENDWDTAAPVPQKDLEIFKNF

[18] = target: SRSF protein kinase 1 (Homo sapiens) (UniProt Q96SB4); experiment: Inhibition of SRPK1 (unknown origin) assessed as remaining activity at 1 uM by Kinome scan method relative to control
[19] = system: Hepatocyte growth factor receptor (Homo sapiens), P08581 [M1250T]; experiment: Inhibition of human MET M1250T mutant assessed as residual activity at 1 uM using poly(Ala,Glu,Lys,Tyr)6:2:5:1 as substrate in presence of 33P-ATP by ProQinase assay relative to control
[20] = target: Activated CDC42 kinase 1 (Homo sapiens) (UniProt Q07912); experiment: Inhibition of human ACK1 assessed as residual activity at 1 uM using PolyEY as substrate in presence of 33P-ATP by ProQinase assay relative to control
Activated CDC42 kinase 1 (Homo sapiens), sequence (Q07912 whole entry, looked up): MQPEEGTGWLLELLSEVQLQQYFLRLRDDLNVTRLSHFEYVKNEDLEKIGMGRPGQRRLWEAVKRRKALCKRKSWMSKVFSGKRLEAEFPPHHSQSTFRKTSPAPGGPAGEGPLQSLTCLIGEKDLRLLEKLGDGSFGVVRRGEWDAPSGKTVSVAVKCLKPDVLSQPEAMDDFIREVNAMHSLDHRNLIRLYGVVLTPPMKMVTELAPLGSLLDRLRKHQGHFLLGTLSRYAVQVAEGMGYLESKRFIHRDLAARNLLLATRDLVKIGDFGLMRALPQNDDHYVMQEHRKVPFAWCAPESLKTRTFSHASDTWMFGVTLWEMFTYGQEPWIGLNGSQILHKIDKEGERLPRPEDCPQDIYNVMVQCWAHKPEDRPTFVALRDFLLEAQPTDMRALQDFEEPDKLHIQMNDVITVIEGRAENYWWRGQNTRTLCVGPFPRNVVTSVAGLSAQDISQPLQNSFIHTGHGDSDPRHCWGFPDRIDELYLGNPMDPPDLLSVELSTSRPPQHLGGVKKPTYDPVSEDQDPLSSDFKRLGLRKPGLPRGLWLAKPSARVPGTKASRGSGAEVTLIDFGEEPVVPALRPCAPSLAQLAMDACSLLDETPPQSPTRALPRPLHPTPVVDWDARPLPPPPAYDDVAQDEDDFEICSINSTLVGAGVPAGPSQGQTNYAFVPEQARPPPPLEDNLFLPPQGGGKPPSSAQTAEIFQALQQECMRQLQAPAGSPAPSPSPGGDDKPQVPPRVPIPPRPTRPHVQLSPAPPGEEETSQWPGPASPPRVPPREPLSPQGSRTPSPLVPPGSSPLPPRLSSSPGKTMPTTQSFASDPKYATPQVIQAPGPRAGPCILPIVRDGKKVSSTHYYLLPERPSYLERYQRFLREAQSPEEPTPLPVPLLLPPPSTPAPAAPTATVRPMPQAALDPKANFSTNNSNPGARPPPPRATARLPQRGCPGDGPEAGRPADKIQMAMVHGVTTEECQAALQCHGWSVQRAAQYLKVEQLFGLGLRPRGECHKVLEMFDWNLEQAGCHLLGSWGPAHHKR

[21] = target: Tyrosine-protein kinase receptor UFO (Homo sapiens) (UniProt P30530); experiment: Inhibition of human AXL assessed as residual activity at 1 uM using polyEy as substrate in presence of 33P-ATP by ProQinase assay relative to control
[22] = system: Mast/stem cell growth factor receptor Kit (Homo sapiens), P10721 [V559D,T670I]; experiment: Inhibition of KIT V559D/T670I mutant (unknown origin) assessed as remaining activity at 1 uM by Kinome scan method relative to control
[23] = target: CDK7/Cyclin H/MNAT1 (Homo sapiens) (UniProt P51946+P50613+P51948); experiment: Inhibition of human CDK7/CyclinH/MAT1 assessed as residual activity at 1 uM using RBER-CHKtide as substrate in presence of 33P-ATP by ProQinase assay relative to control; type: protein-complex assay
[24] = target: Serine/threonine-protein kinase 24 (Homo sapiens) (UniProt Q9Y6E0); experiment: Inhibition of MST3 (unknown origin) assessed as remaining activity at 1 uM by Kinome scan method relative to control
Serine/threonine-protein kinase 24 (Homo sapiens), sequence (Q9Y6E0 whole entry, looked up): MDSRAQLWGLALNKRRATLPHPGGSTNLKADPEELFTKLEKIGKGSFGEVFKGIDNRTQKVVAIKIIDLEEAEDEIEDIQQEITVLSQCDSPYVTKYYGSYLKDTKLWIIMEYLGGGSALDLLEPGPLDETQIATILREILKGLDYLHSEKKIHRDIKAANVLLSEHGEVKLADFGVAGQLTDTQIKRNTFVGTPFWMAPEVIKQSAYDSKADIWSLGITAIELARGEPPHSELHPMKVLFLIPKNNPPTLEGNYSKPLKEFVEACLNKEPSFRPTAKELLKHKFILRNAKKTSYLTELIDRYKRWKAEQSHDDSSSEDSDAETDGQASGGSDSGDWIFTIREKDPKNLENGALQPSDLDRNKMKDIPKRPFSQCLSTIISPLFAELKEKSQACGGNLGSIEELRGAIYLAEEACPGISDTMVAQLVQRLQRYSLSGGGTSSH

[25] = target: Ribosomal protein S6 kinase alpha-6 (Homo sapiens) (UniProt Q9UK32); experiment: Inhibition of human RPS6KA6 assessed as residual activity at 1 uM using RBER-GSK3(14-27) as substrate in presence of 33P-ATP by ProQinase assay relative to control
[26] = target: Tyrosine-protein kinase HCK (Homo sapiens) (UniProt P08631); experiment: Inhibition of human HCK assessed as residual activity at 1 uM using polyEY as substrate in presence of 33P-ATP by ProQinase assay relative to control

For O=C1c2ccc(Nc3ccc(F)cc3F)cc2CCc2ccc(OC[C@H](O)CO)cc21 [Skepinone-L], the Activity [1] was 84%, the Activity [2] was 97% and the Activity [3] was 100%. The Activity [4] was 79%, the Activity [5] was 87% and the Activity [6] was 91%. The Activity [7] was 106%, the Activity [8] was 100% and the Activity [9] was 100%. For the same molecule, the Activity [10] was 103%, the Activity [11] was 104% and the Activity (TAK1/TAB1 (Homo sapiens)) was 80%. The Activity [12] was 100%, the Activity [13] was 100% and the Activity [14] was 91%. It also gave an Activity [15] of 3%, an Activity [16] of 100% and an Activity [17] of 89%. It also gave an Activity [18] of 100%, an Activity [19] of 100% and an Activity [20] of 108%. The Activity [21] was 100%, the Activity [22] was 94% and the Activity [23] was 107%. For the same molecule, the Activity [24] was 100%, the Activity [25] was 85% and the Activity [26] was 98%.
